Earlier results as cited in article PMC3065555 (European journal of medicinal chemistry, 2011).

Molecular target: SERCA (Oryctolagus cuniculus, UniProt P04191)
Details: training set compounds previously characterized; ref [1], [6], [32]

SERCA, sequence (P04191 1-994 isoform P04191-2): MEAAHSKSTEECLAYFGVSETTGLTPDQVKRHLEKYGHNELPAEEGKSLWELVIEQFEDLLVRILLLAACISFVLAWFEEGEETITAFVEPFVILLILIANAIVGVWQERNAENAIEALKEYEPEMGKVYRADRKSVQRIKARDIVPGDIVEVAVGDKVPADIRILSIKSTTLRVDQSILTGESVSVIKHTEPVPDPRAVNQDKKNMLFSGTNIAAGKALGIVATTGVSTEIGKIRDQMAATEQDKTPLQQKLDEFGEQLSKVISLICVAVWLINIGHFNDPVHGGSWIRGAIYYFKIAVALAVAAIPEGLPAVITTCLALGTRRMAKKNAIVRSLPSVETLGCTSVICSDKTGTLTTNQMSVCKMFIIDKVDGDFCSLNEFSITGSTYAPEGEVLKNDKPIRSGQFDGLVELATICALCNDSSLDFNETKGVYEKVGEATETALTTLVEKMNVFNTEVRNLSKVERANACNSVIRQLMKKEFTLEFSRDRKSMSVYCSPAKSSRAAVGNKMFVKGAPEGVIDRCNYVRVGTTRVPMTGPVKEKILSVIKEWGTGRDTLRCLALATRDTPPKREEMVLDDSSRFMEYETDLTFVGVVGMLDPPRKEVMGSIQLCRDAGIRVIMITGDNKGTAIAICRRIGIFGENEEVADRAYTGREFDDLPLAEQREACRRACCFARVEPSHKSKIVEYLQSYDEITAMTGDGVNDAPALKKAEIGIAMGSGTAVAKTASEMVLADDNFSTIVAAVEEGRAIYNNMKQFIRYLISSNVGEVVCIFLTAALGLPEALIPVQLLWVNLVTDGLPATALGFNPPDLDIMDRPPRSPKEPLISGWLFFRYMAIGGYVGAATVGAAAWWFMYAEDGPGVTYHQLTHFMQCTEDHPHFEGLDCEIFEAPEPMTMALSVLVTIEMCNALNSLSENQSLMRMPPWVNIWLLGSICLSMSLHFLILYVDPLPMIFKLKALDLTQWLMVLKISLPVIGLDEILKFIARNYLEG

CC(C)(C)c1ccc(C(C)(C)C)cc1 [1,4-di-tert-butylbenzene]
IC50: inactive

CC(C)(C)c1ccc(C(C)(C)C)c(O)c1 [2,5-di-tert-butylphenol]
IC50: 6.81 µM
